# Earlier results, collected in patent US6699847B2, “Antiparasitic formulation” (Pfizer Inc., priority 1998, dated 2004).
smiles,measurement,value
CO[C@H]1C[C@H](O[C@H]2[C@H](C)O[C@@H](O[C@@H]3/C(C)=C/C[C@@H]4C[C@@H](C[C@]5(C=C[C@H](C)[C@@H](C6CCCCC6)O5)O4)OC(=O)[C@@H]4C=C(C)[C@@H](O)[C@H]5OC/C(=C\C=C\[C@@H]3C)[C@]54O)C[C@@H]2OC)O[C@@H](C)[C@@H]1O [Doramectin],solubility in water,sparingly soluble
